Results on 1 substance are retold here after patent publication US5770732A, “Pyrrolinone-based peptidomimetics” (The Trustees of the University of Pennsylvania, priority 1994, dated 1998).

In this test the target is T1, renin (Homo sapiens, UniProt P00797).
T1 sequence (P00797 67-406): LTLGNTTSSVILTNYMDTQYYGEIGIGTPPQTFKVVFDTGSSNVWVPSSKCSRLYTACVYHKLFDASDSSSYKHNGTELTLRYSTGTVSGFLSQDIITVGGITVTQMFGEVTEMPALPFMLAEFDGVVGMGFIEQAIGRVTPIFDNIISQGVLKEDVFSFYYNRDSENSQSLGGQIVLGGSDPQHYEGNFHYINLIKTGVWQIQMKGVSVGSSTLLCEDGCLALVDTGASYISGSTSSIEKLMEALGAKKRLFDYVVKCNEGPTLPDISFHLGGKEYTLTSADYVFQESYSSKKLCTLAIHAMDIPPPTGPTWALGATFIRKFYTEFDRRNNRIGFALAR
Nature of the test: Renin inhibition. It is filed as biochemical.

As for “[5(S)-prenyl-(5-benzyl)pyrrolin-4-one-3]-2(R)-isobutylacetate-[1-amino-1(S)-cyclohexylmethyl-2(R)3 3(S)-dihydroxy-5-methyl-hexane]-amide [Structure (10a)]”, the “concentration at which found to act as effective renin inhibitor” value was found to be 700 nM.
